Measured values as given in PubChem BioAssay (NCI).
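Following 48 hours of exposure in 96-well plates, responses at five concentrations were used to interpolate endpoints linearly. Abbreviation: GI50, concentration required for 50% inhibition of growth. Definition used: TGI = concentration required for complete inhibition of growth.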

Columns and labels:
Experiment in all cases: NCI-60 cell line screen, 48 h
[1] = tested on: 786-0 renal
[2] = tested on: A549 NSCLC
[3] = tested on: ACHN renal
[4] = tested on: BT-549 breast
[5] = tested on: CAKI-1 renal
[6] = tested on: CCRF-CEM leukemia
[7] = tested on: COLO 205 colon
[8] = tested on: DU-145 prostate
[9] = tested on: EKVX NSCLC
[10] = tested on: HCC-2998 colon
[11] = tested on: HCT-116 colon
[12] = tested on: HCT-15 colon
[13] = tested on: HOP-62 NSCLC
[14] = tested on: HOP-92 NSCLC
[15] = tested on: HS 578T breast
[16] = tested on: HT29 colon
[17] = tested on: IGROV1 ovarian
[18] = tested on: K-562 leukemia
[19] = tested on: KM12 colon
[20] = tested on: LOX IMVI melanoma
[21] = tested on: M14 melanoma
[22] = tested on: MCF7 breast
[23] = tested on: MDA-MB-231 breast
[24] = tested on: MDA-MB-435
[25] = tested on: MOLT-4 leukemia
[26] = tested on: NCI-H226 lung
[27] = tested on: NCI-H23 lung
[28] = tested on: NCI-H460 lung
[29] = tested on: NCI-H522 lung
[30] = tested on: NCI/ADR-RES ovarian
[31] = tested on: OVCAR-3 ovarian
[32] = tested on: OVCAR-5 ovarian
[33] = tested on: OVCAR-8 ovarian
[34] = tested on: PC-3 prostate
[35] = tested on: RPMI-8226 leukemia
[36] = tested on: RXF 393 renal
[37] = tested on: SF-268 CNS
[38] = tested on: SF-295 CNS
[39] = tested on: SF-539 CNS
[40] = tested on: SK-MEL-2 melanoma
[41] = tested on: SK-MEL-28 melanoma
[42] = tested on: SK-MEL-5 melanoma
[43] = tested on: SK-OV-3 ovarian
[44] = tested on: SN12C renal
[45] = tested on: SNB-19 CNS
[46] = tested on: SNB-75 CNS
[47] = tested on: SW-620 colon
[48] = tested on: T-47D breast
[49] = tested on: TK-10 renal
[50] = tested on: U251 CNS
[51] = tested on: UACC-257 melanoma
[52] = tested on: UACC-62 melanoma
[53] = tested on: UO-31 renal
[54] = tested on: A498 renal
[55] = tested on: HL-60(TB) leukemia
[56] = tested on: MALME-3M melanoma
[57] = tested on: OVCAR-4 ovarian

Work on `O=C(Cc1csc2nc(-c3ccc(Br)cc3)cn12)N/N=C/c1ccccc1O` yielded a GI50 [1] of 4.68 µM, a TGI [1] of 17.7 µM and a GI50 [2] of 6.22 µM. For the same molecule, the TGI [2] was 24.2 µM, the GI50 [3] was 1.57 µM and the TGI [3] was 6.3 µM. The GI50 [4] was 10.1 µM, the TGI [4] was 22.6 µM and the GI50 [5] was 0.397 µM. The TGI [5] was 2.4 µM, the GI50 [6] was 1.81 µM and the TGI [6] was 8.41 µM. For the same molecule, the GI50 [7] was 5.08 µM, the TGI [7] was 23.1 µM and the GI50 [8] was 2.89 µM. It also gave a TGI [8] of 13.9 µM, a GI50 [9] of 3.93 µM and a TGI [9] of 19.2 µM. It also gave a GI50 [10] of 3.48 µM, a TGI [10] of 12.7 µM and a GI50 [11] of 3.21 µM. It also gave a TGI [11] of 12.4 µM, a GI50 [12] of 0.952 µM and a TGI [12] of 17.3 µM. The GI50 [13] was 3.88 µM, the TGI [13] was 14.9 µM and the GI50 [14] was 2.1 µM. The TGI [14] was 14.6 µM, the GI50 [15] was 13.4 µM and the TGI [15] was 42.3 µM. It also gave a GI50 [16] of 5.97 µM, a TGI [16] of 19.2 µM and a GI50 [17] of 1.04 µM. For the same molecule, the TGI [17] was 11.5 µM, the GI50 [18] was 0.0372 µM and the TGI [18] was 2.95 µM. It also gave a GI50 [19] of 3.62 µM, a TGI [19] of 16.8 µM and a GI50 [20] of 3.47 µM. The TGI [20] was 13 µM, the GI50 [21] was 2.58 µM and the TGI [21] was 7.77 µM. For the same molecule, the GI50 [22] was 13.2 µM, the TGI [22] was over 100 µM and the GI50 [23] was 3.27 µM. For the same molecule, the TGI [23] was 17 µM, the GI50 [24] was 3.33 µM and the TGI [24] was 13.6 µM. The GI50 [25] was 2.35 µM, the TGI [25] was 10.8 µM and the GI50 [26] was 1.93 µM. For the same molecule, the TGI [26] was 7.84 µM, the GI50 [27] was 3.43 µM and the TGI [27] was 14 µM. The GI50 [28] was 15.7 µM, the TGI [28] was over 100 µM and the GI50 [29] was 5.27 µM. It also gave a TGI [29] of 27.2 µM, a GI50 [30] of 2.53 µM and a TGI [30] of 6.83 µM. It also gave a GI50 [31] of 3.22 µM, a TGI [31] of 15.1 µM and a GI50 [32] of 5.51 µM. For the same molecule, the TGI [32] was 31.9 µM, the GI50 [33] was 2.28 µM and the TGI [33] was 12.4 µM. For the same molecule, the GI50 [34] was 4.28 µM, the TGI [34] was 16.7 µM and the GI50 [35] was 2.83 µM. It also gave a TGI [35] of 20.7 µM, a GI50 [36] of 37.7 µM and a TGI [36] of 62.5 µM. For the same molecule, the GI50 [37] was over 100 µM, the TGI [37] was over 100 µM and the GI50 [38] was 2.73 µM. It also gave a TGI [38] of 9.34 µM, a GI50 [39] of 3.55 µM and a TGI [39] of 11.8 µM. The GI50 [40] was 21.1 µM, the TGI [40] was 53.8 µM and the GI50 [41] was 11.9 µM. It also gave a TGI [41] of 24.2 µM, a GI50 [42] of 2.98 µM and a TGI [42] of 10.6 µM. The GI50 [43] was 12.8 µM, the TGI [43] was 30.2 µM and the GI50 [44] was 3.34 µM. The TGI [44] was 16 µM, the GI50 [45] was 6.8 µM and the TGI [45] was 25.4 µM. It also gave a GI50 [46] of 13 µM, a TGI [46] of 32 µM and a GI50 [47] of 3.98 µM. It also gave a TGI [47] of 17.2 µM, a GI50 [48] of 5.22 µM and a TGI [48] of 23.2 µM. It also gave a GI50 [49] of 2.05 µM, a TGI [49] of 8.72 µM and a GI50 [50] of 3.67 µM. The TGI [50] was 15.1 µM, the GI50 [51] was 3.68 µM and the TGI [51] was 11.6 µM. The GI50 [52] was 2.09 µM, the TGI [52] was 7.28 µM and the GI50 [53] was 7.16 µM. It also gave a TGI [53] of over 100 µM.

For `Cc1cc(Br)c(O)c(-c2cscn2)c1`, the TGI [1] was 8.39 µM, the TGI [54] was 76.8 µM and the TGI [2] was 50.4 µM. The TGI [3] was 36.6 µM, the TGI [4] was 24 µM and the TGI [5] was 62.6 µM. The TGI [6] was 28.6 µM, the TGI [7] was 51.8 µM and the TGI [9] was 96.1 µM. The TGI [10] was 36.2 µM, the TGI [11] was 25.2 µM and the TGI [12] was 18.4 µM. For the same molecule, the TGI [55] was 12.7 µM, the TGI [13] was 41.2 µM and the TGI [14] was 43.1 µM. It also gave a TGI [15] of 52.4 µM, a TGI [16] of over 100 µM and a TGI [17] of 56.7 µM. It also gave a TGI [18] of 25.2 µM, a TGI [20] of 23.1 µM and a TGI [21] of 44 µM. The TGI [56] was 43.7 µM, the TGI [24] was 41.9 µM and the TGI [27] was 35.6 µM. It also gave a TGI [28] of 49.6 µM, a TGI [30] of 56.9 µM and a TGI [31] of over 100 µM. The TGI [57] was 28.7 µM, the TGI [32] was 36.4 µM and the TGI [33] was 42.1 µM. It also gave a TGI [34] of 27.7 µM, a TGI [35] of 20.3 µM and a TGI [38] of over 100 µM. The TGI [39] was 37.3 µM, the TGI [40] was 35.1 µM and the TGI [42] was 30.5 µM. The TGI [43] was over 100 µM, the TGI [44] was 23.6 µM and the TGI [45] was 31.2 µM. It also gave a TGI [47] of 31.5 µM, a TGI [49] of 42 µM and a TGI [52] of 28.2 µM. The TGI [53] was 25.4 µM.
